Measured values as given in patent publication US20230046728A1, “TECHNOLOGIES USEFUL FOR ASSESSING PERMEABILITY” (FOG PHARMACEUTICALS, INC., priority 2019, published 2023).

Assays:
[1] = tested on: Expi293 cells transfected with His-Halotag; assay: Library cell penetration assay, cell crash method (Example 6); type: in vitro ADME, human
Experimental: Animal cells (e.g., Expi293 cells or human HEK 293 cells) were seeded in tissue culture plates and cultured in Opti-MEM media. The cells were set in PETG flasks at a concentration of 6×10^5 cells/mL and a volume of 30 mL. The cell viability was checked to be above 90-93%. The flasks were placed in a shaking incubator at 300 rpm in 8% CO2.
After 24 hours of incubation, for each flask, one 1.5-mL Lo-bind tube and one 2-mL Lo-Bind tube were prepared. In the 1.5-mL tube, 30 μg of polyhistidine-tagged halotag (His-Halotag) plasmid and Opti-MEM media were added to provide a 1-mL mixture. In the 2-mL Lo-Bind tube, 60 μL of ExpiFectamine and 940 μL of Opti-MEM were added. After 5 minutes, the plasmid/Opti-MEM mixture was added to the ExpiFectamine/Opti-MEM mixture. The combined mixture was placed in an incubator at room temperature for 20 minutes, which was subsequently added to the flask.
After 48 hours of transfection, the transfected cells were checked for viability (90% or higher). The transfected cells were transferred to a protein Lo-Bind Eppendorf 96-well deep well plate (1000 μL), where each well contained 1 million cells in 500 μL of Expi293 media.
Solutions of candidate compounds, either individual peptides or peptides from a peptide library (DPLs), were received at a stock concentration of 10 mM and diluted in DMSO and kept in a “Source Plate”. For DPLs, the peptide concentration in the “Source Plate” was 1 mM, whereas for individual peptides, the concentration was either 100 μM (for a final concentration of 100 nM) or 10 μM (for a final concentration of 10 nM). […] of the DPL or individual peptide solution was added in triplicates to the 96-well plate. The cells were kept in a shaking incubator at 300 rpm and 37 ° C., 8% CO2 overnight for about 18-20 hours.
The following day, one of the following two methods was performed: i) capture beads method or ii) cell crash method.
Cell crash method: the 96-well plate was placed in the centrifuge at 300 g for 5 minutes. 720 μL of the supernatant was removed. The cells were resuspended in residual 200 μL of media. The suspensions were transferred to a 96-well v-bottom plate, which was placed in the centrifuge at 300 g for an additional 5 minutes. All remaining media was removed. The cell pellets were washed with 200 μL of PBS, mixed and placed back in the centrifuge at 300 g and 4 ° C. for an additional 5 minutes. The supernatant was removed and 80 μL of PBS was added.
80 μL of eluted proteins/peptides from the capture beads method or the PBD solution from the cell crash method was transferred into a deepwell low binding plate (500 μL). 80 μL of ammonium hydroxide was added. The plate was kept on a shaker at 37 ° C. for 3 hours. The plate was dried in a speedvac overnight.
The following day, the dried cell pellet was resuspended in 70 μL of 47.5% water with 0.1% FA/47.5% ACN with 0.1% FA/10 μM pepmix (10 mM stock)/5% fresh DMSO. The mixture was let sit in the plate for 1 hour to allow the dissolution of the pellet. If the sample appeared cloudy, more resuspension solution was added (50 μL at a time). 50 μL was transferred directly to the mass spec plate and the plate was sealed with the 384-well plate seal.
(§1) Once all samples were added (including cell free), the plate was placed in an autosampler of a mass spectrometer. For the mass spectrometry analysis, methods from example 1 were employed.
Results from certain assessment were presented blow. Cell crash method was utilized. Mass Shifted Peptide Theoretical Max signal is signal of an agent comprising —OH obtained when using the DhaA to convert input agent comprising —Cl into product agent comprising —OH form without involving cells (multiple agents may be converted simultaneously; in some embodiments, can be performed library by library). In some embodiments, each library pool plus positive and negative references was tested in a single well, which in some cases contain about a million or so cells. […]

[2] = target: DhaA enzyme (Rhodococcus rhodochrous, UniProt P0A3G2); assay: Cell free peptide/DhaA conversion, Mass Shifted Peptide Theoretical Max signal (Example 6); type: biochemical; conditions: DhaA converts —Cl input agent into —OH product agent, MS signal
DhaA enzyme, sequence (P0A3G2 whole entry): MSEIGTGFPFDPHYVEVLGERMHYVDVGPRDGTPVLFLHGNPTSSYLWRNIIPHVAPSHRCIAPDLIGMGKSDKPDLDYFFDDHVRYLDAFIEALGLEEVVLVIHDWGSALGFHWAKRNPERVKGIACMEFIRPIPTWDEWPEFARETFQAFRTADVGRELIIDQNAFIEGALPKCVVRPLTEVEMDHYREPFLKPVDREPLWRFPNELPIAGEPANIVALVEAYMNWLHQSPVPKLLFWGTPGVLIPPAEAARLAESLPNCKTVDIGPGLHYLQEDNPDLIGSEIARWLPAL
Experimental: For the cell free systems, DPLs were diluted in a 500 μL DPW plate (library dilution plate). Individual peptides were diluted individually in low-bind tubes until making the final working dilution in PBS. At this point, the individual peptides were transferred to the library dilution plate. By having all final dilutions in one plate, a multichannel was used to transfer the diluted peptides to the cell free plates. The same design as “Source Plate” was used for the cell assay. For the peptide only plate, 45 μL of PBS was added to each well and 5 μL of the diluted library/peptide was added in triplicates. For peptide/DhaA plate, 5 μL of 50 μM DhaA enzyme was added, followed by 40 μL of PBS and 5 μL of the diluted library/peptide. Both plates were kept at the bench top thermomixer at 350 rpm and 37 ° C. overnight. The next day, 2 mL of a cell free solution was prepared with 1 mL of DMSO, 20 μL of PepMix and 980 μL of a 1:1 ratio of ACN/0.1% FA and H2O/0.1% FA. 5 μL of the cell free solution was added to a 384 well plate, followed by 45 μL of the cell free sample.
as §1
Results from certain assessment were presented blow. Cell crash method was utilized. Mass Shifted Peptide Theoretical Max signal is signal of an agent comprising —OH obtained when using the DhaA to convert input agent comprising —Cl into product agent comprising —OH form without involving cells (multiple agents may be converted simultaneously; in some embodiments, can be performed library by library). In some embodiments, each library pool plus positive and negative references was tested in a single well, which in some cases contain about a million or so cells. Each library pool is an individually prepared library with no purifications—all members mixed together along with side products, etc. “Cell Penetration Score” is calculated by dividing “Mass Shifted Peptide Signal in Cells” by “Mass Shifted Peptide Theoretical Max Signal” for each pair of replicates, then averaging those values across replicates; additionally or alternatively, COR and/or RPF may also be utilized.

[3] = MS signal of unconverted —Cl agent from cells, library pool or individual peptide
[4] = MS signal of —OH agent from cells, library pool or individual peptide
[5] = Mass Shifted Peptide Signal in Cells divided by Mass Shifted Peptide Theoretical Max Signal, averaged across replicates

Molecule | Peptide Signal in Cells (from cells; agents comprising —Cl) [1, 3] | Mass Shifted Peptide Signal in Cells [1, 4] | Cell Penetration Score [1, 5] | Mass Shifted Peptide Theoretical Max Signal [2] | Cell Penetration Score ([1]; Mass Shifted Peptide Signal in Cells divided by Theoretical Max Signal per replicate pair, averaged) | Peptide Signal in Cells (from cells; agents comprising —Cl) ([1]; library pool tested as mixture, MS signal of unconverted —Cl agent) | Mass Shifted Peptide Signal in Cells ([1]; library pool tested as mixture, MS signal of —OH agent)
HaloTagO2-Leu-Thr-Phe-ReN-Ala-Tyr-Trp-Ala-Gln-Cba-Az-Ser-Ala-Ala-NH2 [PEP000127] | 0E+00 | 1E+06 | 17 | 8E+06 |  |  | 
HaloTagO2-Leu-Thr-Phe-ReN-Glu-Tyr-Trp-Ala-Ala-Cba-Az-Ser-Ala-Ala-NH2 [PEP000133] | 0E+00 | 3E+05 | 5 | 5E+06 |  |  | 
HaloTagO2-Leu-Thr-Phe-ReN-Ala-Tyr-Trp-Ala-Gln-Cba-Az-Ser-Ala-Ala-NHMe [PEP000130] | 5E+03 | 2E+06 | 27 | 7E+06 |  |  | 
HaloTagO2-Leu-Thr-Phe-ReN-Glu-Tyr-Trp-Ala-Gln-Cba-Az-Ser-Ala-Ala-NHMe [PEP000136] | 0E+00 | 1E+04 | 0 | 4E+06 |  |  | 
HaloTagO2-Leu-Thr-Phe-ReN-Glu-Tyr-Trp-Ala-Ala-Cba-Az-Ser-Ala-Ala-NHMe [PEP000135] | 0E+00 | 3E+05 | 7 | 5E+06 |  |  | 
HaloTagO2-Leu-Thr-Phe-ReN-Thr-Tyr-Trp-Ala-Gln-Cba-Az-Ser-Ala-Ala-NHMe [PEP000132] | 0E+00 | 1E+06 | 20 | 6E+06 |  |  | 
HaloTagO2-Leu-Thr-Phe-ReN-Glu-Tyr-Trp-Ala-Thr-Cba-Az-Ser-Ala-Ala-NHMe [PEP000137] | 0E+00 | 4E+05 | 6 | 6E+06 |  |  | 
CNC(=O)[C@H](C)NC(=O)[C@H](C)NC(=O)[C@H](CO)NC(=O)[C@]1(C)CCCC=CCCCCCC[C@@](C)(NC(=O)[C@H](Cc2ccccc2)NC(=O)[C@@H](NC(=O)[C@H](CC(C)C)NC(=O)CCC(=O)NCCOCCOCCCCCCCl)[C@@H](C)O)C(=O)N[C@@H](C)C(=O)N[C@@H](Cc2ccc(O)cc2)C(=O)N[C@@H](Cc2c[nH]c3ccccc23)C(=O)N[C@@H](C)C(=O)N[C@@H](CCC(N)=O)C(=O)N[C@@H](CC2CCC2)C(=O)N1 [PEP000119, HaloTagO2-Leu-Thr-Phe-R8-Ala-Tyr-Trp-Ala-Gln-Cba-S5-Ser-Ala-Ala-NHMe] |  |  |  |  | 304 | 1E+07 | 2E+07
HaloTagO2-Leu-Thr-Phe-ReN-Glu-Tyr-Trp-Ala-Gln-Cba-Az-Ser-Ala-Ala-NH2 [PEP000128] | 0E+00 | 1E+05 | 3 | 4E+06 |  |  | 
HaloTagO2-Leu-Thr-Phe-ReN-Thr-Tyr-Trp-Ala-Gln-Cba-Az-Ser-Ala-Ala-NH2 [PEP000129] | 0E+00 | 1E+06 | 19 | 6E+06 |  |  | 
HaloTagO2-Leu-Thr-Phe-ReN-Glu-Tyr-Trp-Ala-Thr-Cba-Az-Ser-Ala-Ala-NH2 [PEP000134] | 3E+03 | 1E+05 | 2 | 6E+06 |  |  | 
HaloTagO2-Leu-Thr-Phe-ReN-Glu-Tyr-Trp-Ala-Gln-Cba-Az-Ser-Ala-Ala-NHMe [PEP000131] | 0E+00 | 1E+05 | 3 | 3E+06 |  |  | 
